{"source": "patent US20090258069A1", "about": "“Delivery of LFA-1 antagonists to the gastrointestinal system” (priority 2008, published 2009)", "tested_on": "tester strains", "experiment": "In vitro Ames bacterial reverse mutation assay", "format": "cell-based", "conditions": "presence or absence of microsomal (S9) enzymes", "excerpt": "Therefore, Compound 12 was judged to be not mutagenic."}
{"smiles": "CS(=O)(=O)c1cccc(C[C@H](NC(=O)c2c(Cl)cc3c(c2Cl)CCN(C(=O)c2ccc4ccoc4c2)C3)C(=O)O)c1", "note": "[Compound 12]", "values": [{"measurement": "Ames assay, revertants per plate", "value": "not mutagenic"}]}
